In ChEMBL document CHEMBL3046027, “In vitro and in vivo antifungal activity of synthetic pure isothiocyanates against Sclerotinia sclerotiorum” (Pest Manag Sci, 2011):

Key:
[1] = system: Sclerotinia sclerotiorum; assay: In vivo antifungal Sclerotinia sclerotiorum in Pepper (Capsicum annuum L. cv. Sera Demre) assessed as inhibition of mycelial growth in volatile phase at 292 umol/L measured after 10 to 14 weeks; format: functional
[2] = system: Sclerotinia sclerotiorum; assay: Antifungal activity against Sclerotinia sclerotiorum assessed as inhibition of mycelial growth in contact phase at 4387 umol/l measured at 20 degC after 5 days; format: functional; details: 120 h, read-out: GI
[3] = system: Sclerotinia sclerotiorum; assay: Antifungal activity against Sclerotinia sclerotiorum assessed as inhibition of mycelial growth in contact phase at 2924 umol/l measured at 20 degC after 5 days; format: functional; details: 120 h, read-out: GI
[4] = system: Sclerotinia sclerotiorum; assay: Antifungal activity against Sclerotinia sclerotiorum assessed as inhibition of mycelial growth in contact phase at 1462 umol/l measured at 20 degC after 5 days; format: functional; details: 120 h, read-out: GI
[5] = system: Sclerotinia sclerotiorum; assay: Antifungal activity against Sclerotinia sclerotiorum assessed as inhibition of mycelial growth in contact phase at 1316 umol/l measured at 20 degC after 5 days; format: functional; details: 120 h, read-out: GI
[6] = system: Sclerotinia sclerotiorum; assay: Antifungal activity against Sclerotinia sclerotiorum assessed as inhibition of mycelial growth in contact phase at 1024 umol/l measured at 20 degC after 5 days; format: functional; details: 120 h, read-out: GI
[7] = system: Sclerotinia sclerotiorum; assay: Antifungal activity against Sclerotinia sclerotiorum assessed as inhibition of germination in volatile phase at 439 umol/l measured at 20 degC after 5 days; format: functional; details: 120 h
[8] = system: Sclerotinia sclerotiorum; assay: Antifungal activity against Sclerotinia sclerotiorum assessed as inhibition of germination in volatile phase at 146 umol/l measured at 20 degC after 5 days; format: functional; details: 120 h
[9] = system: Sclerotinia sclerotiorum; assay: Antifungal activity against Sclerotinia sclerotiorum assessed as inhibition of germination in volatile phase at 73 umol/l measured at 20 degC after 5 days; format: functional; details: 120 h
[10] = system: Sclerotinia sclerotiorum; assay: Fungistatic activity in Sclerotinia sclerotiorum assessed as inhibition of carpogenic germination in volatile phase at 1460 umol/l measured at 20 degC after 5 days relative to control; format: functional; details: 120 h
[11] = system: Sclerotinia sclerotiorum; assay: Fungistatic activity in Sclerotinia sclerotiorum assessed as inhibition of carpogenic germination in volatile phase at 732 umol/l measured at 20 degC after 5 days relative to control; format: functional; details: 120 h
[12] = system: Sclerotinia sclerotiorum; assay: Fungistatic activity in Sclerotinia sclerotiorum assessed as inhibition of carpogenic germination in volatile phase at 146 umol/l measured at 20 degC after 5 days relative to control; format: functional; details: 120 h
[13] = system: Sclerotinia sclerotiorum; assay: In vivo antifungal Sclerotinia sclerotiorum in Pepper (Capsicum annuum L. cv. Sera Demre) assessed as inhibition of mycelial growth in volatile phase at 146 umol/L measured after 10 to 14 weeks; format: functional
[14] = system: Sclerotinia sclerotiorum; assay: Fungistatic activity in Sclerotinia sclerotiorum assessed as inhibition of carpogenic germination in volatile phase at 73 umol/l measured at 20 degC after 5 days relative to control; format: functional; details: 120 h
[15] = system: Sclerotinia sclerotiorum; assay: Fungistatic activity in Sclerotinia sclerotiorum assessed as sclerotial viability measured at 20 degC after 5 days; format: functional, organism-based; details: 120 h
[16] = system: Sclerotinia sclerotiorum; assay: Fungistatic activity in Sclerotinia sclerotiorum assessed as inhibition of mycelial growth in volatile phase measured at 20 degC after 5 days; format: functional, organism-based; details: 120 h
[17] = system: Sclerotinia sclerotiorum; assay: Fungistatic activity in Sclerotinia sclerotiorum assessed as inhibition of mycelial growth in contact phase measured at 20 degC after 5 days; format: functional, organism-based; details: 120 h
[18] = system: Sclerotinia sclerotiorum; assay: Fungitoxic activity in Sclerotinia sclerotiorum assessed as viability in volatile phase at 731 umol/l measured at 20 degC after 5 days relative to control; format: functional; details: 120 h, read-out: GI
[19] = system: Sclerotinia sclerotiorum; assay: Antifungal activity against Sclerotinia sclerotiorum assessed as inhibition of mycelial growth in volatile phase at 1460 umol/l measured at 20 degC after 5 days; format: functional; details: 120 h, read-out: GI
[20] = system: Sclerotinia sclerotiorum; assay: Antifungal activity against Sclerotinia sclerotiorum assessed as inhibition of mycelial growth in volatile phase at 1024 umol/l measured at 20 degC after 5 days; format: functional; details: 120 h, read-out: GI
[21] = system: Sclerotinia sclerotiorum; assay: Antifungal activity against Sclerotinia sclerotiorum assessed as inhibition of mycelial growth in volatile phase at 732 umol/l measured at 20 degC after 5 days; format: functional; details: 120 h, read-out: GI
[22] = system: Sclerotinia sclerotiorum; assay: Antifungal activity against Sclerotinia sclerotiorum assessed as inhibition of mycelial growth in volatile phase at 146 umol/l measured at 20 degC after 5 days; format: functional; details: 120 h, read-out: GI
[23] = system: Sclerotinia sclerotiorum; assay: Antifungal activity against Sclerotinia sclerotiorum assessed as inhibition of mycelial growth in volatile phase at 73 umol/l measured at 20 degC after 5 days; format: functional; details: 120 h, read-out: GI
[24] = system: Sclerotinia sclerotiorum; assay: Fungistatic activity in Sclerotinia sclerotiorum assessed as inhibition of mycelial growth in contact phase at 4387 umol/l measured at 20 degC after 5 days relative to control; format: functional; details: 120 h, read-out: GI
[25] = system: Sclerotinia sclerotiorum; assay: Fungitoxic activity in Sclerotinia sclerotiorum assessed as inhibition of mycelial growth in volatile phase at 1024 umol/l measured at 20 degC after 5 days relative to control; format: functional; details: 120 h, read-out: GI
[26] = system: Sclerotinia sclerotiorum; assay: Antifungal activity against Sclerotinia sclerotiorum assessed as inhibition of germination in volatile phase at 1462 umol/l measured at 20 degC after 5 days; format: functional; details: 120 h
[27] = system: Sclerotinia sclerotiorum; assay: Antifungal activity against Sclerotinia sclerotiorum assessed as inhibition of germination in volatile phase at 731 umol/l measured at 20 degC after 5 days; format: functional; details: 120 h
[28] = system: Sclerotinia sclerotiorum; assay: Fungistatic activity in Sclerotinia sclerotiorum assessed as inhibition of mycelial growth in volatile phase at 732 umol/l measured at 20 degC after 5 days relative to control; format: functional; details: 120 h, read-out: GI

Structure (SMILES): CN=C=S [METHYLISOTHIOCYANATE]
- inhibition in vivo at 292 µM [1]: 85%
- inhibition of growth at 4387 µM [2]: 100%
- inhibition of growth at 2924 µM [3]: 81.2%
- inhibition of growth at 1462 µM [4]: 54.7%
- inhibition of growth at 1316 µM [5]: 18.2%
- inhibition of growth at 1024 µM [6]: 10.8%
- inhibition at 439 µM [7]: 66.7%
- inhibition at 146 µM [8]: 6.7%
- inhibition at 73 µM [9]: 0%
- inhibition at 1460 µM [10]: 67.5%
- inhibition at 732 µM [11]: 35%
- inhibition at 146 µM [12]: 30%
- inhibition in vivo at 146 µM [13]: 55%
- inhibition at 73 µM [14]: 30%
- EC50 [15]: 336 µM
- EC50 [16]: 79 µM
- EC50 [17]: 168 µM
- inhibition of growth at 731 µM [18]: 100%
- inhibition of growth at 1460 µM [19]: 100%
- inhibition of growth at 1024 µM [20]: 100%
- inhibition of growth at 732 µM [21]: 100%
- inhibition of growth at 146 µM [22]: 55.3%
- inhibition of growth at 73 µM [23]: 34.7%
- inhibition of growth at 4387 µM [24]: 100%
- inhibition of growth at 1024 µM [25]: 100%
- inhibition at 1462 µM [26]: 100%
- inhibition at 731 µM [27]: 100%
- inhibition of growth at 732 µM [28]: 100%
